We go through 33 compounds from US12653190B2, “Heteroaryl-triazole compounds as pesticides” (Bayer Aktiengesellschaft, priority 2020, dated 2026).

Assay type in all cases: in vivo
Assay [1] relates to adult engorged female ticks (Rhipicephalus microplus). Nature of the assay: Rhipicephalus (Boophilus) microplus injection test. To be noted: 168 h, egg deposition monitored after 7 days, read-out: efficacy (infertile eggs); for pest or weed control at 4 µg/tick: 4 μg/tick injected; for pest or weed control at 20 µg/tick: 20 μg/tick injected. The procedure: Rhipicephalus (Boophilus) microplus—Iniectiontest
• Solvent: dimethyl sulfoxide
To produce a suitable preparation of active compound, 10 mg of active compound are dissolved in 0.5 mL solvent, and the concentrate is diluted with solvent to the desired concentration.
Five adult engorged female ticks (Rhipicephalus microplus) are injected with 1 μL compound solution into the abdomen. The ticks are transferred into replica plates and incubated in a climate chamber.
After 7 days egg deposition of fertile eggs is monitored. Eggs where fertility is not visible are stored in a climate chamber till hatching after about 42 days. An efficacy of 100% means all eggs are infertile; 0% means all eggs are fertile.

For assay [2], the system named is larvae of the banded cucumber beetle (Diabrotica balteata). Nature of the assay: Diabrotica balteata spray test. The conditions noted are these: 168 h, 100 g/ha (=32 μg/well), after 7 days, wheat seeds, read-out: efficacy (seedling growth). As for the experimental part:
Diabrotica balteata—Spray Test
(§1) • Solvent: 78.0 parts by weight of acetone • 1.5 parts by weight of dimethylformamide • Emulsifier: alkylarylpolyglycol ether
(§2) To produce a suitable preparation of active compound, 1 part by weight of active compound is mixed with the stated amount of solvent, and the concentrate is diluted with water, containing an emulsifier concentration of 1000 ppm, to the desired concentration. Further test concentrations are prepared by dilution with emulsifier containing water.
Soaked wheat seeds (Triticum aestivum) are placed in a multiple well plate filled with agar and some water and are incubated for 1 day to germinate (5 seeds per well). The germinated wheat seeds are sprayed with a test solution containing the desired concentration of the active ingredient. Afterwards each unit is infected with 10-20 larvae of the banded cucumber beetle (Diabrotica balteata).
After 7 days efficacy in % is determined. 100% means all the seedlings have grown up like in the untreated, uninfected control; 0% means none of the seedlings have grown.

The test system of assay [3] is fall armyworm larvae (Spodoptera frugiperda). Nature of the assay: Spodoptera frugiperda spray test. The conditions noted are these: in Zea mays, 168 h. The procedure:
Spodoptera frugiperda—Spray Test
• Solvent: 78.0 parts by weight acetone • 1.5 parts by weight dimethylformamide • Emulsifier: alkylarylpolyglycol ether
To produce a suitable preparation of active compound, 1 part by weight of active compound is mixed with the stated amount of solvents and is diluted with water, containing an emulsifier concentration of 1000 ppm, to the desired concentration. Further test concentrations are prepared by dilution with emulsifier containing water.
Maize (Zea mays) leaf sections are sprayed with a preparation of the active ingredient of the desired concentration. Once dry, the leaf sections are infested with fall armyworm larvae (Spodoptera frugiperda). After 7 days mortality in % is determined. 100% means all caterpillars have been killed and 0% means none of the caterpillars have been killed.

Assay [4] has as its system larvae of the southern green stink bug (Nezara viridula). Nature of the assay: Nezara viridula spray test. To be noted: 96 h, after 4 days, barley plants. As for the experimental part: Nezara viridula—Spray Test
as §1, §2
Barley plants (Hordeum vulgare) are sprayed with a test solution containing the desired concentration of the active ingredient and are infested with larvae of the southern green stink bug (Nezara viridula).
After 4 days mortality in % is determined. 100% means all the stink bugs have been killed; 0% means none of the stink bugs have been killed.

In the case of `Cc1nc([C@H](C)NC(=O)c2cc(OC(C)c3cccc(Cl)c3)cc(C(F)(F)F)c2)n(-c2ccc(C#N)cn2)n1` (stereo partly drawn) [Example I-12, 3-[1-(3-Chlorophenyl)ethoxy]-N-{(1S)-1-[1-(5-cyanopyridin-2-yl)-3-methyl-1H-1,2,4-triazol-5-yl]ethyl}-5-(trifluoromethyl)benzamide], in assay [1], the pest or weed control at 4 µg/tick came out at 100% and the pest or weed control at 20 µg/tick amounted to 100%.
With `Cc1nc([C@H](C)NC(=O)c2cc(OCc3ccc(Cl)cc3)cc(C(F)(F)F)c2)n(-c2ccc(C#N)cn2)n1` [Example I-20, 3-[(4-Chlorobenzyl)oxy]-N-{(1S)-1-[1-(5-cyanopyridin-2-yl)-3-methyl-1H-1,2,4-triazol-5-yl]ethyl}-5-(trifluoromethyl)benzamide], the pest or weed control at 4 µg/tick in assay [1] came out at 100%.
For the compound `Cc1nc([C@H](C)NC(=O)c2cc(OC(C)(C)C#N)cc(C3CC3)c2)n(-c2ncc(C#N)s2)n1` [Example I-90], the pest or weed control at 32 µg/disc, 100 g/ha in assay [2] is 100%.
In the case of `C[C@H](NC(=O)c1cc(OC(F)(F)F)cc(C(C)(C)C#N)c1)c1nc(C2CC2)nn1-c1ncc(C#N)s1` [Example I-67], the pest or weed control at 32 µg/disc, 100 g/ha in assay [2] came out at 100%. Also, in assay [3], the mortality at 100 g/ha was 100%.
In turn, `C[C@H](NC(=O)c1cc(Br)cc(OC(C)(C)C#N)c1)c1ncnn1-c1cc(C#N)ncn1` [Example I-85] had a mortality at 100 g/ha in assay [3] of 100%.
Still for that read-out and setting: then `C[C@H](NC(=O)c1cc(Br)cc(OC(C)(C)C#N)c1)c1ncnn1-c1cnc(C#N)cn1` [Example I-84], with 100%.
Regarding `C[C@H](NC(=O)c1cc(C(C)(C)C#N)cc(S(C)(=O)=O)c1)c1nc(C2CC2)nn1-c1ncc(C#N)s1` [Example I-93], the pest or weed control at 32 µg/disc, 100 g/ha in assay [2] is 80%. Also, the mortality at 100 g/ha in assay [3] was 100%.
For `CC(=O)Oc1cc(Cl)cc(C(=O)N[C@@H](C)c2ncnn2-c2ccc(C#N)cn2)c1` [Example I-11], in assay [1], the pest or weed control at 4 µg/tick worked out at 80% and the pest or weed control at 20 µg/tick was determined as 80%.
Turning to `Cc1nc([C@H](C)NC(=O)c2cc(O)cc(C(F)(F)F)c2)n(-c2ccc(C#N)cn2)n1` [Example I-47, N-{(1S)-1-[1-(5-Cyanopyridin-2-yl)-3-methyl-1H-1,2,4-triazol-5-yl]ethyl}-3-hydroxy-5-(trifluoromethyl)benzamide], in assay [1], the pest or weed control at 4 µg/tick was 100% and the pest or weed control at 20 µg/tick came out at 100%.
As to `C[C@H](NC(=O)c1cc(Br)cc(OC2CC2)c1)c1ncnn1-c1ncc(C#N)s1` [Example I-49], the pest or weed control at 32 µg/disc, 100 g/ha in assay [2] worked out at 100%. Moreover, the mortality at 100 g/ha in assay [3] came to 100%.
As for `C[C@H](NC(=O)c1cc(Br)cc(C(F)(F)c2ccc(F)cc2)c1)c1ncnn1-c1cc(C#N)ncn1` [Example I-80], the pest or weed control at 32 µg/disc, 100 g/ha in assay [2] amounted to 100%. The same compound had a mortality at 100 g/ha in assay [3] of 100%.
As for `C[C@H](NC(=O)c1cc(Br)cc(OCC2CC2(Cl)Cl)c1)c1ncnn1-c1ncc(C#N)s1` (stereo partly shown) [Example I-62], the pest or weed control at 32 µg/disc, 100 g/ha in assay [2] is 100%.
As to `Cc1nc([C@H](C)NC(=O)c2cc(OCc3cccc(Cl)c3)cc(C(F)(F)F)c2)n(-c2ccc(C#N)cn2)n1` [Example I-13, 3-[(3-Chlorobenzyl)oxy]-N-{(1S)-1-[1-(5-cyanopyridin-2-yl)-3-methyl-1H-1,2,4-triazol-5-yl]ethyl}-5-(trifluoromethyl)benzamide], in assay [1], the pest or weed control at 4 µg/tick came out at 80% and the pest or weed control at 20 µg/tick was determined as 100%. Besides, the pest or weed control at 32 µg/disc, 100 g/ha in assay [2] was found to be 100%.
On to `C[C@H](NC(=O)c1cc(Br)cc(C(F)(F)c2ccc(F)cc2)c1)c1ncnn1-c1ncc(C#N)s1` [Example I-78], for which the pest or weed control at 32 µg/disc, 100 g/ha in assay [2] amounted to 100%. The same compound returned a mortality at 100 g/ha in assay [3] of 100%.
`C[C@H](NC(=O)c1cc(OC(C)(C)C#N)cc(C2CC2)c1)c1ncnn1-c1cc(C#N)ncn1` [Example I-92] showed a mortality at 100 g/ha in assay [3] of 100%.
Turning to `Cc1nc([C@H](C)NC(=O)c2cc(Br)cc(C(F)(F)c3ccc(F)cc3)c2)n(-c2ncc(C#N)s2)n1` [Example I-79], the pest or weed control at 32 µg/disc, 100 g/ha in assay [2] is 100%. This compound registered a mortality at 100 g/ha in assay [3] of 100%.
On to `Cc1nc([C@H](C)NC(=O)c2cc(OC3CC3)cc(OC(F)(F)F)c2)n(-c2ncc(C#N)s2)n1` [Example I-88], for which the pest or weed control at 32 µg/disc, 100 g/ha in assay [2] is 100%. The same compound showed a mortality at 100 g/ha in assay [3] of 100%.
As to `C[C@H](NC(=O)c1cc(Cl)nc(C(C)(C)C#N)c1)c1nc(C2CC2)nn1-c1ncc(C#N)s1` [Example I-69], the pest or weed control at 32 µg/disc, 100 g/ha in assay [2] turned out to be 100%. Also, the mortality at 100 g/ha in assay [3] amounted to 100%.
With `C[C@H](NC(=O)c1cc(Cl)cc(C(=O)C2CC2)c1)c1ncnn1-c1cc(C#N)ncn1` [Example I-81], the pest or weed control at 32 µg/disc, 100 g/ha in assay [2] was 100%. The mortality at 100 g/ha in assay [3] was 100%.
For `C[C@H](NC(=O)c1cc(Br)cc(OCC2CC2(F)F)c1)c1ncnn1-c1ncc(C#N)s1` (stereo partly shown) [Example I-63], the pest or weed control at 32 µg/disc, 100 g/ha in assay [2] was 100%.
For the compound `Cc1nc([C@H](C)NC(=O)c2cc(OCc3ccccc3)cc(C(F)(F)F)c2)n(-c2ccc(C#N)cn2)n1` [Example I-18, 3-(Benzyloxy)-N-{(1S)-1-[1-(5-cyanopyridin-2-yl)-3-methyl-1H-1,2,4-triazol-5-yl]ethyl}-5-(trifluoromethyl)benzamide], in assay [1], the pest or weed control at 4 µg/tick stood at 100%. The pest or weed control at 32 µg/disc, 100 g/ha in assay [2] was found to be 100%.
Regarding `C[C@H](NC(=O)c1cc(Cl)cc(CC#N)c1)c1ncnn1-c1ncc(C#N)s1` [Example I-50], the pest or weed control at 32 µg/disc, 100 g/ha in assay [2] worked out at 100%.
As to `C[C@H](NC(=O)c1cc(OC2CC2)cc(OC(F)(F)F)c1)c1ncnn1-c1cc(C#N)ncn1` [Example I-87], in assay [2], the pest or weed control at 32 µg/disc, 100 g/ha stood at 80%. In assay [3], this compound came in with a mortality at 100 g/ha of 100%.
On to `Cc1nc([C@H](C)NC(=O)c2cc(OC(C)c3ccccc3Cl)cc(C(F)(F)F)c2)n(-c2ccc(C#N)cn2)n1` (stereo partly drawn) [Example I-14, 3-[1-(2-Chlorophenyl)ethoxy]-N-{(1S)-1-[1-(5-cyanopyridin-2-yl)-3-methyl-1H-1,2,4-triazol-5-yl]ethyl}-5-(trifluoromethyl)benzamide], for which, in assay [1], the pest or weed control at 4 µg/tick was 100% and the pest or weed control at 20 µg/tick worked out at 100%.
Turning to `C[C@H](NC(=O)c1cc(Br)cc(C(F)(F)c2ccc(F)cc2)c1)c1ncnn1-c1cnc(C#N)cn1` [Example I-77], in assay [2], the pest or weed control at 32 µg/disc, 100 g/ha came out at 100%. The compound also yielded a mortality at 100 g/ha in assay [3] of 100%.
In turn, `C[C@H](NC(=O)c1cc(CC#N)cc(OC(F)(F)F)c1)c1ncnn1-c1cnc(C#N)cn1` [Example I-57] came in with a mortality at 100 g/ha in assay [3] of 100%.
As for `Cc1nc([C@H](C)NC(=O)c2cc(Cl)cc(C(=O)C3CC3)c2)n(-c2ncc(C#N)s2)n1` [Example I-82], in assay [2], the pest or weed control at 32 µg/disc, 100 g/ha was 100%. The compound also yielded a mortality at 100 g/ha in assay [3] of 100%.
With `C[C@H](NC(=O)c1cc(C(C)(C)C#N)cc(S(C)(=O)=O)c1)c1ncnn1-c1ncc(C#N)s1` [Example I-55], the results for the mortality at 100 g/ha in assay [4] (100 g/ha) and in assay [3] were 90% and 100%, respectively. Moreover, the mortality at 500 g/ha in assay [4] (500 g/ha) stood at 90%.
In the case of `C[C@H](NC(=O)c1cc(OC2CC2)cc(OC(F)(F)F)c1)c1ncnn1-c1cnc(C#N)cn1` [Example I-86], in assay [2], the pest or weed control at 32 µg/disc, 100 g/ha came out at 100%. In assay [3], this compound returned a mortality at 100 g/ha of 100%.
Consider `C[C@H](NC(=O)c1cc(Cl)cc(C(=O)C2CC2)c1)c1ncnn1-c1ncc(C#N)s1` [Example I-83], for which, in assay [2], the pest or weed control at 32 µg/disc, 100 g/ha worked out at 100%. Besides, in assay [3], the mortality at 100 g/ha was found to be 100%.
In the case of `Cc1nc([C@H](C)NC(=O)c2cc(OCc3ccccc3Cl)cc(C(F)(F)F)c2)n(-c2ccc(C#N)cn2)n1` [Example I-16, 3-[(2-Chlorobenzyl)oxy]-N-{(1S)-1-[1-(5-cyanopyridin-2-yl)-3-methyl-1H-1,2,4-triazol-5-yl]ethyl}(trifluoromethyl)benzamide], in assay [1], the pest or weed control at 4 µg/tick worked out at 100% and the pest or weed control at 20 µg/tick stood at 100%.
With `C[C@H](NC(=O)c1cc(OC(F)(F)F)cc(C(C)(C)C#N)c1)c1nc(C2CC2)nn1-c1cc(C#N)ncn1` [Example I-76], the pest or weed control at 32 µg/disc, 100 g/ha in assay [2] came out at 100%. In assay [3], the mortality at 100 g/ha stood at 100%.
Take `C[C@H](NC(=O)c1cc(OC(C)(C)C#N)cc(C2CC2)c1)c1ncnn1-c1ncc(C#N)s1` [Example I-89]: the pest or weed control at 32 µg/disc, 100 g/ha in assay [2] amounted to 100%.

For orientation: mortality means the share of the test organisms that died. Higher therefore signals a strong lethal effect.
